“Also recorded” adds a separate entry of the source.
What was measured:
[1] = test system: rat phrenic nerve, hemi-diaphragm preparation; assay: Rat phrenic nerve hemi-diaphragm preparation, neostigmine reversibility; details: FIG. 8, in vitro; for neostigmine reversibility of the loss of strength (muscle weakness): 1 μM neostigmine
Protocol: Male, Sprague-Dawley rats weighing 100-180 g were obtained from Envigo and euthanized by exposure to 4.5% isoflurane followed by exsanguination. Right and left hemi-diaphragms were removed and placed in oxygen bubbled, cold saline until use. The saline contained, in mM, 140 NaCl, 5 KCl, 1.6 CaCl2·6H2O, 1 NaH2PO4, 6 NaHCO3, 5 D-glucose, 10 HEPES, pH 7.2 adjusted with 1 N NaOH, and was bubbled with 100% oxygen at 22° C. The costal cartilage of the hemi-diaphragm was secured to the floor of a 20 mL volume chamber with a metal hook and the crural end attached to a metal hook and thread leading to a force transducer (iWorx Systems, Dover, NH) and a data acquisition program (Labscribe). The phrenic nerve was introduced into a suction electrode and stimulated (pulse width=0.5 msec, supramaximal voltage=1 V) with a train of four, i.e., four stimuli in two seconds, repeated every minute. The first pulse, T1, was used as a measure of muscle strength. […]
In the figure CONTROL is the force of contraction before addition of test substances, TEST is the force after the addition of test substances, NEOSTIG is the force of contraction after the addition of 1 μM neostigmine, ROC is rocuronium, and SUC is succinylcholine.

[2] = biological target: T1, adult, human muscle, nicotinic acetylcholine receptor (Homo sapiens, UniProt P02708+P11230+Q04844+Q07001); assay: Patch clamp electrophysiology in transfected HEK-293 cells; assay type: cell-based; details: outside-out patch, 10 μM compound, 300 μM acetylcholine, -50 mV; for competition with acetylcholine at the receptor (summary graph): FIG. 9B
T1 construct: expressed in transfected cells; host or cells: HEK-293
Protocol: Patch clamp electrophysiology: HEK-293 cells were transfected with the cDNA for adult, human muscle acetylcholine receptors and prepared for patch clamp recording as described previously. Immediately before the experiment, the culture medium was replace with an extracellular solution (ECS) contains 150 mM NaCl, 5.6 mM KCl, 1.8 mM CaCl2, 1.0 mM MgCl2, and 10 mM HEPES, pH 7.3. Patch pipettes filled with a solution consisting of 140 mM KCl, 5 mM EGTA, 5 mM MgCl2, and 10 mM HEPES, pH 7.3, had resistances of 3 to 4 MΩ. An outside-out patch with a seal resistance of >2 GΩ was excised from a cell and moved into position at the outflow of a HSSE-2 rapid perfusion system (ALA Scientific Instruments, Westbury, NY). The patch was rapidly and transiently perfused with 300 μM acetylcholine to activate >95% of the channels at a holding potential of −50 mV. This was the control trace; the figures show the average of 5 control traces. Subsequently, the same patch was used to test for agonist activity by the carborane compounds by switching to a reservoir containing 300-1000 μM of the compound, repeated 5 times. To test for antagonism, the patch was equilibrated with 10 μM of the compound for >3 s followed by rapid perfusion of 300 μM acetylcholine+compound. Each series of traces using a compound was followed a return to control conditions (recovery) to determine that the control current hadn't changed by more than 20%. The peak current for each series of traces was calculated. The decrease in peak current represented a combination of competitive and open-channel block by the compound. The results are illustrated in FIGS. 9A and 9B.

mice = details: FIG. 6; dose response

Compound	mechanism of action (depolarizing or non-depolarizing) from neostigmine reversal [1]	neostigmine reversibility of the loss of strength (muscle weakness) [1]	competition with acetylcholine at the receptor (summary graph) [2]	relative potency for loss of mouse grip strength as a function of dose injected (mice)	competition with acetylcholine at the receptor (single compound traces) ([2]; FIG. 9A)
1,2-bis(N, N, N-trimethylpropan-1-aminium)-1,2-closo-carborane di-iodide [compound 1]	non-depolarizing NMBA; also recorded: non-depolarizers	reversed by neostigmine	compete with acetylcholine	–	–
1,12-bis(N, N, N-trimethylpropan-1-aminium)-1,12-closo-carborane di-iodide [compound 3]	non-depolarizing NMBA; also recorded: non-depolarizers	reversed by neostigmine	compete with acetylcholine	more potent than compound 1	competes reversibly with acetylcholine
1,7-bis(N, N, N-trimethylpropan-1-aminium)-1,7-closo-carborane di-iodide [compound 2]	non-depolarizing NMBA; also recorded: non-depolarizers	reversed by neostigmine	compete with acetylcholine	–	–
C=CC[N+]1([C@H]2C[C@H]3[C@@H]4CC[C@H]5C[C@H](O)[C@@H](N6CCOCC6)C[C@]5(C)[C@H]4CC[C@]3(C)[C@H]2OC(C)=O)CCCC1 [rocuronium, Rocuronium bromide, reference compound]	–	reversed by neostigmine	–	–	–
C[N+](C)(C)CCOC(=O)CCC(=O)OCC[N+](C)(C)C [succinylcholine, succinylcholine chloride, reference compound]	–	not reversed by neostigmine	–	–	–
